Results published in patent US10112937B2, “P2X7 modulators and methods of use” (Janssen Pharmaceutica NV, priority 2013, dated 2018).

Target: human P2X7 (Homo sapiens (Human), UniProt Q99572)
Assay: P2X7 antagonism in human PBMCs (IL-1β release after LPS + Bz-ATP, ELISA)
Type: cell-based
Settings: test compound 10 μM

Sequence of human P2X7 (Q99572 whole entry): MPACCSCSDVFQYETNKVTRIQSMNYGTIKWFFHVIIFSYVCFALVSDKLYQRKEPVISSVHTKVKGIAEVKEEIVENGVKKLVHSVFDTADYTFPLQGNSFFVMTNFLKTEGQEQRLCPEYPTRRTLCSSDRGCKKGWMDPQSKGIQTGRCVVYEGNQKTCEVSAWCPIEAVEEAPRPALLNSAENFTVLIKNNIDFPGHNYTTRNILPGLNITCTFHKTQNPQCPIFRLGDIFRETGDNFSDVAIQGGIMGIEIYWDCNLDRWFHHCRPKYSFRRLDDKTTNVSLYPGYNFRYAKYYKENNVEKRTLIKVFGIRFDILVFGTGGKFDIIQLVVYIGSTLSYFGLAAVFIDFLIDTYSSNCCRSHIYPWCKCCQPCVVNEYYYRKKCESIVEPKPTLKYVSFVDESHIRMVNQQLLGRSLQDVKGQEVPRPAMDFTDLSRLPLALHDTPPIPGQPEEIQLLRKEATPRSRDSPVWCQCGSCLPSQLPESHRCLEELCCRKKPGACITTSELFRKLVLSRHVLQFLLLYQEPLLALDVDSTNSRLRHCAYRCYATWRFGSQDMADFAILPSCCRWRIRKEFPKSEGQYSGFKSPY

| SMILES | PBMC 10 μM (% control) (human PBMCs) | PBMC 10 μM (% control) (LPS 30 ng/ml + 0.5 mM Bz-ATP) |
| --- | --- | --- |
| Cc1c(C(=O)N2CCc3c(nnn3-c3ncccn3)[C@H]2C)cccc1C(F)(F)F (single isomer, unassigned) [Example 188, (R*)-(4-methyl-1-(pyrimidin-2-yl)-6,7-dihydro-1H-[1,2,3]triazolo[4,5-c]pyridin-5(4H)-yl)(2-methyl-3-(trifluoromethyl)phenyl)methanone] | −0.7 | −0.7 |
| C[C@@H]1c2nnn(-c3ncc(F)cn3)c2CCN1C(=O)c1cccc(C(F)(F)F)c1F (single isomer, unassigned) [Example 190, (R*)-(2-fluoro-3-(trifluoromethyl)phenyl)(1-(5-fluoropyrimidin-2-yl)-4-methyl-6,7-dihydro-1H-[1,2,3]triazolo[4,5-c]pyridin-5(4H)-yl)methanone] | 7.1 |  |
| C[C@H]1c2ncn(-c3ccccn3)c2CCN1C(=O)c1cccc(Cl)c1Cl (single isomer, unassigned) [Example 191, (S*)-(2,3-Dichlorophenyl)(4-methyl-1-(pyridin-2-yl)-6,7-dihydro-1H-imidazo[4,5-c]pyridin-5(4H)-yl)methanone] | 5.2 |  |
| C[C@@H]1c2ncn(-c3ccccn3)c2CCN1C(=O)c1cccc(Cl)c1Cl (single isomer, unassigned) [Example 192, (R*)-(2,3-Dichlorophenyl)(4-methyl-1-(pyridin-2-yl)-6,7-dihydro-1H-imidazo[4,5-c]pyridin-5(4H)-yl)methanone] | −6.3 | −6.3 |
| C[C@@H]1c2ncn(-c3ncc(F)cn3)c2CCN1C(=O)c1cccc(C(F)(F)F)c1Cl (single isomer, unassigned) [Example 193, (R*)-(2-Chloro-3-(trifluoromethyl)phenyl)(1-(5-fluoropyrimidin-2-yl)-4-methyl-6,7-dihydro-1H-imidazo[4,5-c]pyridin-5(4H)-yl)methanone] | 1.4 | 1.4 |
| C[C@H]1Cc2c(nnn2-c2cc(F)ccn2)CN1C(=O)c1cccc(Cl)c1Cl (single isomer, unassigned) [Example 196, (6S*)-5-[(2,3-Dichlorophenyl)carbonyl]-1-(4-fluoropyridin-2-yl)-6-methyl-4,5,6,7-tetrahydro-1H-[1,2,3]triazolo[4,5-c]pyridine] | −3.1 |  |
| Cc1c(C(=O)N2CCc3c(nnn3-c3ncccn3)[C@@H]2C)cccc1C(F)(F)F (single isomer, unassigned) [Example 197, (S*)-(4-methyl-1-(pyrimidin-2-yl)-6,7-dihydro-1H-[1,2,3]triazolo[4,5-c]pyridin-5(4H)-yl)(2-methyl-3-(trifluoromethyl)phenyl)methanone] | 2.1 |  |
| C[C@@H]1Cc2c(nnn2-c2cc(F)ccn2)CN1C(=O)c1cccc(C(F)(F)F)c1Cl (single isomer, unassigned) [Example 198, (6R*)-5-{[2-Chloro-3-(trifluoromethyl)phenyl]carbonyl}-1-(4-fluoropyridin-2-yl)-6-methyl-4,5,6,7-tetrahydro-1H-[1,2,3]triazolo[4,5-c]pyridine] | 1.3 |  |
| C[C@H]1Cc2c(nnn2-c2cc(F)ccn2)CN1C(=O)c1cccc(C(F)(F)F)c1Cl (single isomer, unassigned) [Example 199, (6S*)-5-{[2-Chloro-3-(trifluoromethyl)phenyl]carbonyl}-1-(4-fluoropyridin-2-yl)-6-methyl-4,5,6,7-tetrahydro-1H-[1,2,3]triazolo[4,5-c]pyridine] | 0.0 |  |
| Cc1c(C(=O)N2Cc3nnn(-c4ncc(F)cn4)c3C[C@H]2C)cccc1C(F)(F)F (single isomer, unassigned) [Example 207, (6R*)-1-(5-Fluoropyrimidin-2-yl)-6-methyl-5-{[2-methyl-3-(trifluoromethyl)phenyl]carbonyl}-4,5,6,7-tetrahydro-1H-[1,2,3]triazolo[4,5-c]pyridine] | 45.0 |  |
| C[C@@H]1Cc2c(nnn2-c2ncc(F)cn2)CN1C(=O)c1ccc(F)c(Cl)c1Cl (single isomer, unassigned) [Example 214, (6R*)-5-[(2,3-Dichloro-4-fluorophenyl)carbonyl]-1-(5-fluoropyrimidin-2-yl)-6-methyl-4,5,6,7-tetrahydro-1H-[1,2,3]triazolo[4,5-c]pyridine] | 8.2 |  |
| C[C@H]1Cc2c(nnn2-c2ncc(F)cn2)CN1C(=O)c1ccc(F)c(Cl)c1Cl (single isomer, unassigned) [Example 215, (6S*)-5-[(2,3-Dichloro-4-fluorophenyl)carbonyl]-1-(5-fluoropyrimidin-2-yl)-6-methyl-4,5,6,7-tetrahydro-1H-[1,2,3]triazolo[4,5-c]pyridine] | 2.7 |  |
| C[C@H]1Cc2c(nnn2-c2ncc(F)cn2)CN1C(=O)c1ccc(Cl)c(F)c1Cl (single isomer, unassigned) [Example 218, (6S*)-5-[(2,4-Dichloro-3-fluorophenyl)carbonyl]-1-(5-fluoropyrimidin-2-yl)-6-methyl-4,5,6,7-tetrahydro-1H-[1,2,3]triazolo[4,5-c]pyridine] | 6.1 |  |
| C[C@@H]1c2n[nH]c(-c3ncc(F)cn3)c2CCN1C(=O)c1cccc(C(F)(F)F)c1Cl (single isomer, unassigned) [Example 223, (R*)-(2-chloro-3-(trifluoromethyl)phenyl)(3-(5-fluoropyrimidin-2-yl)-7-methyl-4,5-dihydro-2H-pyrazolo[3,4-c]pyridin-6(7H)-yl)methanone] | 1.8 |  |
| Cc1cccc(-n2nnc3c2CCN(C(=O)c2cccc(C(F)(F)F)c2Cl)[C@@H]3C)n1 (single isomer, unassigned) [Example 226, (R*)-(2-chloro-3-(trifluoromethyl)phenyl)(4-methyl-1-(6-methylpyridin-2-yl)-6,7-dihydro-1H-[1,2,3]triazolo[4,5-c]pyridin-5(4H)-yl)methanone] | 58.0 |  |
| Cc1cccc(-n2nnc3c2CCN(C(=O)c2cccc(C(F)(F)F)c2Cl)[C@H]3C)n1 (single isomer, unassigned) [Example 227, (S*)-(2-chloro-3-(trifluoromethyl)phenyl)(4-methyl-1-(6-methylpyridin-2-yl)-6,7-dihydro-1H-[1,2,3]triazolo[4,5-c]pyridin-5(4H)-yl)methanone] | −0.4 |  |
| C[C@H]1Cc2c(nnn2-c2ncc(F)cn2)CN1C(=O)c1cc(C(F)(F)F)ccc1F (single isomer, unassigned) [Example 232, (S*)-(2-fluoro-5-(trifluoromethyl)phenyl)(1-(5-fluoropyrimidin-2-yl)-6-methyl-6,7-dihydro-1H-[1,2,3]triazolo[4,5-c]pyridin-5(4H)-yl)methanone] | 7.5 |  |
| COCCn1ccc(-n2nnc3c2CCN(C(=O)c2cccc(C(F)(F)F)c2Cl)[C@H]3C)n1 (single isomer, unassigned) [Example 249, (S*)-(2-Chloro-3-(trifluoromethyl)phenyl)(1-(1-(2-methoxyethyl)-1H-pyrazol-3-yl)-4-methyl-6,7-dihydro-1H-[1,2,3]triazolo[4,5-c]pyridin-5(4H)-yl)methanone] | 5.1 |  |
| Cc1ccc(-n2nnc3c2CCN(C(=O)c2cccc(C(F)(F)F)c2Cl)[C@@H]3C)nc1 (single isomer, unassigned) [Example 255, (R*)-(2-chloro-3-(trifluoromethyl)phenyl)(4-methyl-1-(5-methylpyridin-2-yl)-6,7-dihydro-1H-[1,2,3]triazolo[4,5-c]pyridin-5(4H)-yl)methanone] | −5.5 |  |
| C[C@H]1c2nnn(-c3ncccn3)c2CCN1C(=O)c1cccc(C(F)(F)F)c1F (single isomer, unassigned) [Example 270, (S*)-(2-fluoro-3-(trifluoromethyl)phenyl)(4-methyl-1-(pyrimidin-2-yl)-6,7-dihydro-1H-[1,2,3]triazolo[4,5-c]pyridin-5(4H)-yl)methanone] | 47.9 |  |
| Cc1cccnc1-n1nnc2c1CCN(C(=O)c1cccc(C(F)(F)F)c1Cl)[C@@H]2C (single isomer, unassigned) [Example 291, (R*)-(2-chloro-3-(trifluoromethyl)phenyl)(4-methyl-1-(3-methylpyridin-2-yl)-6,7-dihydro-1H-[1,2,3]triazolo[4,5-c]pyridin-5(4H)-yl)methanone] | −7.1 |  |
| CCc1ccnc(-n2nnc3c2CCN(C(=O)c2cccc(C(F)(F)F)c2Cl)[C@@H]3C)n1 (single isomer, unassigned) [Example 294, (R*)-(2-chloro-3-(trifluoromethyl)phenyl)(1-(4-ethylpyrimidin-2-yl)-4-methyl-6,7-dihydro-1H-[1,2,3]triazolo[4,5-c]pyridin-5(4H)-yl)methanone] | −8.1 |  |
| Cc1nc(-n2nnc3c2CCN(C(=O)c2cccc(C(F)(F)F)c2Cl)[C@@H]3C)ncc1F (single isomer, unassigned) [Example 305, (R*)-(2-chloro-3-(trifluoromethyl)phenyl)(1-(5-fluoro-4-methylpyrimidin-2-yl)-4-methyl-6,7-dihydro-1H-[1,2,3]triazolo[4,5-c]pyridin-5(4H)-yl)methanone] | 0.9 |  |
| CCOc1cccnc1-n1nnc2c1CCN(C(=O)c1cccc(C(F)(F)F)c1Cl)[C@@H]2C (single isomer, unassigned) [Example 316, (R*)-(2-chloro-3-(trifluoromethyl)phenyl)(1-(3-ethoxypyridin-2-yl)-4-methyl-6,7-dihydro-1H-[1,2,3]triazolo[4,5-c]pyridin-5(4H)-yl)methanone] | −9.6 |  |
| CCOc1cccnc1-n1nnc2c1CCN(C(=O)c1cccc(C(F)(F)F)c1Cl)[C@H]2C (single isomer, unassigned) [Example 317, (S*)-(2-chloro-3-(trifluoromethyl)phenyl)(1-(3-ethoxypyridin-2-yl)-4-methyl-6,7-dihydro-1H-[1,2,3]triazolo[4,5-c]pyridin-5(4H)-yl)methanone] | 4.8 |  |
